Data taken from patent US20130150566A1, “TUMOR-TARGETED TNF-RELATED APOPTOSIS-INDUCING LIGAND'S VARIANT AND THE APPLICATION THEREOF” (TARGETPHARMA LABORATORIES (CHANGZHOU) CO., LTD, priority 2011, published 2013).

Legend:
Hela cells = assay: Cell apoptosis by double staining of Annexin V and propidium iodide, Hela; format: cell-based, human
Method: (§1) The supernatant is removed and the cells are suspended again by 100 μl binding buffer. Annexin V-FITC (BD Pharmgen Company) is added to which final concentration is 2 μg/ml, and the cells are incubated at the room temperature. 10 minutes later, 400 μl binding buffer is supplemented. The cells are transferred into Flow Analyzer Tube, and 1 μg propidium iodide (Sigma Company) is added into each of the tube. The cells are analyzed by Flow Cytometer within 30 minutes. The experiment is repeated three times for each cell line.
(§2) The activity to induce the tumor cell apoptosis of the tumor-targeted TNF-related apoptosis-inducing ligand's variant NGR-TRAIL is appraised using COLO-205, HCT-15 and HT-29 cells separately (FIG. 4). After induced by series concentration gradient TRAIL variant or TRAIL, the tumor cells are detected by Flow Cytometer according to the double staining method of Annexin V-FITC and Pl. […] The sensibility of Hela cell to TRAIL is increased 8 times because of the addition of the short peptide. […] There is a positive correction between the difference of the apoptosis-inducing to these tumor cells between NGR-L-TRAIL and TRAIL and the expression and the abundance of the CD13 molecule on the surface of tumor cell. […] The NGR domain from NGR-L-TRAIL can direct the protein of TRAIL variant to the surface of target cell to enrichment on the cell surface. […]

HCT-15 tumor = assay: Anti-tumor effect in HCT-15 colon cancer model in nude mice; format: in vivo; conditions: HCT-15 model; 400 μg/day per mouse combining with CPT-11; 28th day
Method: The female nude mice bought from ShangHai Experiment Animal Center are 5-6 weeks old. The mouse tail intravenous injection of 100 μg of purified Asialo GM-1 antibody (Wako Chemicals Company, Japan) that is specific antibody blocking natural killer cells is carried out first. 24 hours later, 100 thousands of COLO-205, HT-15 and HT-29 colon cancer cells is subcutaneously vaccinated at the top right side of the back of a mouse. When the volume of tumor arrives 70 cubic millimeters, the mice are grouped randomly and treated. […] Hydrosoluble camptothecin CPT-11([…], trade name: Campto, from Pharmacia/Upjohn Company) is administrated by intravenous administration once a week, for twice in all. The recombinant protein and camptothecin are diluted by phosphate buffer. The volume of tumor is detected by vernier caliper and calculated according the formula: length is multiplied by the square of width and then is divided by 2.
The anti-tumor effect of tumor-targeted TRAIL used together with chemotherapeutic drug CPT-11 is researched in the present invention. Through COLO-205, HC-15 and HT-29 models of athymic nude mice, the anti-tumor effect of NGR-L-TRAIL used together with chemotherapeutic drug CPT-11 is researched, wherein, COLO-205, HC-15 are sensitive to TRAIL, and COLO-205 is most sensitive, and HT-29 is insensitive to TRAIL. […]

COLO-205 cells = assay: Cell apoptosis by double staining of Annexin V and propidium iodide, COLO-205; format: cell-based; conditions: COLO-205 cell
Method: as §1, §2

[1] = tested on: mutated Jurkat cells from FADD−/− and Caspase-−/−; assay: Apoptosis induction in mutated Jurkat cells; format: cell-based

TRAIL: recombinant wild human TNF-related apoptosis-inducing ligand
50% effective concentration (EC50) (inducing apoptosis) (Hela cells): ~0.145 µg/mL | tumor disappeared mice from the 10 administrated mice (HCT-15 tumor): 7 | 50% effective concentration (inducing apoptosis) (COLO-205 cells): 3.5 ng/mL | inducing apoptosis [1]: cannot be detected
